In paper PMC5559489 (Scientific Reports, 2017):

Experiments:
[1] = biological target: seasonal influenza B virus neuraminidase (NA) (Influenza B virus, UniProt C0LT34); assay type: biochemical
[2] = biological target: seasonal influenza A(H3N2) virus neuraminidase (NA) (Influenza A virus, UniProt V9SU56); assay type: biochemical

CCOC(=O)C1=C[C@@H](OC(CC)CC)[C@H](NC(C)=O)[C@@H](N)C1 [oseltamivir, Oseltamivir]
susceptibility to oseltamivir (WHO definition) [1]: sensitive | susceptibility to oseltamivir (WHO definition) [2]: sensitive
